Data as given in patent US20250213532A1, “5-METHOXY-N,N-[…][…] THE TREATMENT OF BIPOLAR DISORDER” (GH RESEARCH IRELAND LIMITED, priority 2022, published 2025).

Tested on: patients with treatment-resistant major depressive disorder (TRD)
Assay: Phase 1/2 clinical trial of inhaled 5-MeO-DMT in TRD: MADRS
Assay type: in vivo, human
Description: When assessing a clinical response at an early timepoint after drug administration (e.g. at 2 hours) based on endpoints which have been developed for a longer recall period (e.g. normally 7 days for the MADRS), a rational modification of such endpoint (e.g. changing the MADRS recall period to 2 hours and carrying forward the sleep item recorded at baseline before drug administration) may be applied. The same applies with respect to the BDRS (in particular the item sleep disturbance) and any other scale applied herein, unless a recall period is specifically indicated.
The Montgomery-Asberg Depression Rating Scale (MADRS) is a ten-item diagnostic questionnaire used to measure the severity of depressive episodes in patients with mood disorders (Montgomery, S. A., & Asberg, M. (1979). A new depression scale designed to be sensitive to change. The British Journal of Psychiatry 134, p.382). It was designed as an adjunct to the Hamilton Rating Scale for Depression (HAM-D), which would be more sensitive to the changes brought on by antidepressants and other forms of treatment. Higher MADRS score indicates more severe depression. The items considered are apparent sadness; reported sadness; inner tension; reduced sleep; reduced appetite; concentration difficulties; lassitude; inability to feel; pessimistic thoughts; and suicidal thoughts, and each item yields a score of 0 to 6. The overall score ranges from 0 to 60. Score ranges used herein for assessing the severity of depressive episodes in patients with bipolar disorder are 13-18 for “mildly ill”, 19-23 for “moderately ill”, 24-36 for “markedly ill”, 37-39 for “severely ill”, and 40 for “extremely ill” (Thase, 2021).
Patients were assigned to different groups.
This trial was designed in two parts.

[1] = 12 mg n=4, 2 hours, baseline 13
[2] = 12 mg n=4, 2 hours, baseline 16

COc1ccc2[nH]cc(CCN(C)C)c2c1 [5-MeO-DMT]
MADRS Suicidal Thoughts percentage improvement (12 mg n=4, 2 hours, baseline 8): 63%
MADRS Suicidal Thoughts score (sum) (12 mg n=4, 2 hours, baseline 8): 3
MADRS Inner Tension percentage improvement [1]: 85%
MADRS Inner Tension score (sum) [1]: 2
MADRS Concentration Difficulties percentage improvement [2]: 56%
MADRS Concentration Difficulties score (sum) [2]: 7
MADRS Inability to Feel percentage improvement [2]: 44%
MADRS Inability to Feel score (sum) [2]: 9
MADRS Lassitude percentage improvement [2]: 38%
MADRS Lassitude score (sum) [2]: 10
MADRS Pessimistic Thoughts percentage improvement [2]: 50%
MADRS Pessimistic Thoughts score (sum) [2]: 8
MADRS Suicidal Thoughts score (sum) (12 mg n=4, Day 1, baseline 8): 5
MADRS Reduced Sleep score (sum) (12 mg n=4, Day 1, baseline 12): 10
MADRS Inner Tension percentage improvement (12 mg n=4, Day 1, baseline 13): 77%
MADRS Inner Tension score (sum) (12 mg n=4, Day 1, baseline 13): 3
MADRS Concentration Difficulties percentage improvement (12 mg n=4, Day 1, baseline 16): 88%
MADRS Concentration Difficulties score (sum) (12 mg n=4, Day 1, baseline 16): 2
MADRS Inability to Feel score (sum) (12 mg n=4, Day 1, baseline 16): 1
MADRS Lassitude percentage improvement (12 mg n=4, Day 1, baseline 16): 100%
MADRS Lassitude score (sum) (12 mg n=4, Day 1, baseline 16): 0
MADRS Pessimistic Thoughts percentage improvement (12 mg n=4, Day 1, baseline 16): 56%
MADRS Pessimistic Thoughts score (sum) (12 mg n=4, Day 1, baseline 16): 7
MADRS Suicidal Thoughts score (sum) (12 mg n=4, Day 7, baseline 8): 7
MADRS Reduced Sleep score (sum) (12 mg n=4, Day 7, baseline 12): 6
MADRS Inner Tension percentage improvement (12 mg n=4, Day 7, baseline 13): 62%
MADRS Inner Tension score (sum) (12 mg n=4, Day 7, baseline 13): 5
MADRS Concentration Difficulties percentage improvement (12 mg n=4, Day 7, baseline 16): 81%
MADRS Concentration Difficulties score (sum) (12 mg n=4, Day 7, baseline 16): 3
MADRS Inability to Feel score (sum) (12 mg n=4, Day 7, baseline 16): 1
MADRS Lassitude percentage improvement (12 mg n=4, Day 7, baseline 16): 81%
MADRS Lassitude score (sum) (12 mg n=4, Day 7, baseline 16): 3
MADRS Pessimistic Thoughts percentage improvement (12 mg n=4, Day 7, baseline 16): 50%
MADRS Pessimistic Thoughts score (sum) (12 mg n=4, Day 7, baseline 16): 8
MADRS Suicidal Thoughts percentage improvement (IDR n=8, 2 hours, baseline 11): 73%
MADRS Suicidal Thoughts score (sum) (IDR n=8, 2 hours, baseline 11): 3
MADRS Inner Tension percentage improvement (IDR n=8, 2 hours, baseline 26): 58%
MADRS Inner Tension score (sum) (IDR n=8, 2 hours, baseline 26): 11
MADRS Lassitude percentage improvement (IDR n=8, 2 hours, baseline 27): 63%
MADRS Lassitude score (sum) (IDR n=8, 2 hours, baseline 27): 10
MADRS Pessimistic Thoughts percentage improvement (IDR n=8, 2 hours, baseline 28): 75%
MADRS Pessimistic Thoughts score (sum) (IDR n=8, 2 hours, baseline 28): 7
MADRS Concentration Difficulties percentage improvement (IDR n=8, 2 hours, baseline 30): 63%
MADRS Concentration Difficulties score (sum) (IDR n=8, 2 hours, baseline 30): 11
MADRS Inability to Feel percentage improvement (IDR n=8, 2 hours, baseline 36): 67%
MADRS Inability to Feel score (sum) (IDR n=8, 2 hours, baseline 36): 12
MADRS Suicidal Thoughts score (sum) (IDR n=8, Day 1, baseline 11): 1
MADRS Reduced Sleep score (sum) (IDR n=8, Day 1, baseline 25): 12
MADRS Inner Tension percentage improvement (IDR n=8, Day 1, baseline 26): 77%
MADRS Inner Tension score (sum) (IDR n=8, Day 1, baseline 26): 6
MADRS Lassitude percentage improvement (IDR n=8, Day 1, baseline 27): 81%
MADRS Lassitude score (sum) (IDR n=8, Day 1, baseline 27): 5
MADRS Pessimistic Thoughts percentage improvement (IDR n=8, Day 1, baseline 28): 86%
MADRS Pessimistic Thoughts score (sum) (IDR n=8, Day 1, baseline 28): 4
MADRS Concentration Difficulties percentage improvement (IDR n=8, Day 1, baseline 30): 97%
MADRS Concentration Difficulties score (sum) (IDR n=8, Day 1, baseline 30): 1
MADRS Inability to Feel score (sum) (IDR n=8, Day 1, baseline 36): 2
MADRS Suicidal Thoughts score (sum) (IDR n=8, Day 7, baseline 11): 3
MADRS Reduced Sleep score (sum) (IDR n=8, Day 7, baseline 25): 9
MADRS Inner Tension percentage improvement (IDR n=8, Day 7, baseline 26): 54%
MADRS Inner Tension score (sum) (IDR n=8, Day 7, baseline 26): 12
MADRS Lassitude percentage improvement (IDR n=8, Day 7, baseline 27): 89%
MADRS Lassitude score (sum) (IDR n=8, Day 7, baseline 27): 3
MADRS Pessimistic Thoughts percentage improvement (IDR n=8, Day 7, baseline 28): 89%
MADRS Pessimistic Thoughts score (sum) (IDR n=8, Day 7, baseline 28): 3
MADRS Concentration Difficulties percentage improvement (IDR n=8, Day 7, baseline 30): 70%
MADRS Concentration Difficulties score (sum) (IDR n=8, Day 7, baseline 30): 9
MADRS Inability to Feel score (sum) (IDR n=8, Day 7, baseline 36): 6
